Structures can show the parent of a compound that is named as a salt.
Legend:
[1] = biological target: T1, human neutrophil elastase (Homo sapiens, UniProt P08246); test: Neutrophil Elastase activity assay (fluorogenic AMC substrate); assay type: biochemical; design: key to Neutrophil Elastase IC50 / Neutrophil Elastase IC90: - = inactive
T1 construct: purchased Merck Millipore 324681
T1 sequence (P08246 30-247 limits assumed): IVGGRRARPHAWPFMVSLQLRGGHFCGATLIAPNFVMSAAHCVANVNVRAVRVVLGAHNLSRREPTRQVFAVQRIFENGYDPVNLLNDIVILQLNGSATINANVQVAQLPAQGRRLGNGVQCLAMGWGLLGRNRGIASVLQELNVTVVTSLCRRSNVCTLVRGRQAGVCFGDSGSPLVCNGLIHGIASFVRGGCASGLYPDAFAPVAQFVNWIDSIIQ

[2] = biological target: recombinant human TMPRSS2 (Homo sapiens, UniProt O15393); test: TMPRSS2 activity assay (fluorogenic AMC substrate); conditions: read-out: TMPRSS2 IC90
Sequence of recombinant human TMPRSS2 (O15393 106-492 limits assumed): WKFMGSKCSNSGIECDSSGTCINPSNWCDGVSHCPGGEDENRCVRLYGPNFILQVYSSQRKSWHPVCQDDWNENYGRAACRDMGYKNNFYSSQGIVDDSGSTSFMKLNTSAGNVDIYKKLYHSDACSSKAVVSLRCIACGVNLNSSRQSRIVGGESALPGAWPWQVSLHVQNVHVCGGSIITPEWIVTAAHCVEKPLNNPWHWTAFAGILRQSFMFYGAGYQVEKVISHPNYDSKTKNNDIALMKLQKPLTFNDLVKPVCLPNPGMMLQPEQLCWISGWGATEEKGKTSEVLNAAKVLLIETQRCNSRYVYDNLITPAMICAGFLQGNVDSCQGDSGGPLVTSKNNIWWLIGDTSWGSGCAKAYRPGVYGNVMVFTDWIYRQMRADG

[3] = biological target: recombinant human TMPRSS2 enzyme (CusaBio #YP023924HU) (human) (UniProt O15393); test: cell-based or functional assay
Sequence of recombinant human TMPRSS2 enzyme (CusaBio #YP023924HU) (human) (O15393 106-492 limits assumed): as above

TMPRSS2 IC50 (TMPRSS2 activity assay, fluorogenic BOC-Gln-Ala-Arg-AMC substrate) [3] [nM] | Compound | Neutrophil Elastase IC90 ([1]; non-linear regression) | Neutrophil Elastase IC50 ([1]; non-linear regression, three independent experiments) | inhibition of neutrophil elastase activity ([1]; result in words, Figure 27) | IC90 [2] [nM]
 | CN(C)C(=O)COC(=O)Cc1ccc(OC(=O)c2ccc(NC(=N)N)cc2)cc1 [Camostat mesylate] | - | - | did not inhibit | 9.2
79 | Prolastin (Grifols), human plasma-derived A1AT formulation (from UniProt P01009 25-418) |  |  |  | 
74.1 | recombinant human alpha-1-antitrypsin (rhAAT) glycoprotein secreted from Pichia pastoris mutS strain 1B6 (from UniProt P01009 25-418) |  |  |  | 

— EP4480493A1, “A RECOMBINANT HUMAN ALPHA-1 ANTITRYPSIN GLYCOPROTEIN FOR TREATING NON-VIRAL INFLAMMATORY DISEASES OF THE LUNG” (AATEC Medical GmbH, priority 2023, dated 2024)
